What was measured:
Experiment in all cases: Bliss excess, mean over the matrix (fraction); higher = more synergy
[1] = system: NCI-H1975 (Lung Adenocarcinoma)
Summary of the method: (§1)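 Bliss excess equals the observed combination effect minus the expected value EA + EB − EA·EB, where EA and EB are the effects of each agent alone. Combination Emax is the second-highest inhibition within the matrix. Inhibition was scaled from CellTiter-Glo 2.0 luminescence, with 0 set by vehicle wells and 1 by blank wells, after 72 hours of two-drug dosing of cells plated in 1536-well plates.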

[2] = system: TK (B-Cell Non-Hodgkin's Lymphoma)
Summary of the method: as §1

[3] = system: SBC-3 (Small Cell Lung Carcinoma)
Summary of the method: as §1

[4] = system: NCI-H2170 (Squamous Cell Lung Carcinoma)
Summary of the method: as §1

MG-63 (Osteosarcoma) = system: MG-63 (Osteosarcoma)
Summary of the method: as §1

[5] = system: Daudi (Burkitt's Lymphoma)
Summary of the method: as §1

SK-MEL-24 (Melanoma) = system: SK-MEL-24 (Melanoma)
Summary of the method: as §1

[6] = system: BT-474 (Breast Carcinoma)
Summary of the method: as §1

GCIY (Gastric Carcinoma) = system: GCIY (Gastric Carcinoma)
Summary of the method: as §1

[7] = system: NCI-H1435 (Non-Small Cell Lung Carcinoma)
Summary of the method: as §1

[8] = system: NCI-H1048 (Small Cell Lung Carcinoma)
Summary of the method: as §1

[9] = system: OCI-M1 (Acute Myeloid Leukemia)
Summary of the method: as §1

[10] = system: NCI-H1944 (Lung Adenocarcinoma)
Summary of the method: as §1

[11] = system: TOV-21G (Ovarian Carcinoma)
Summary of the method: as §1

[12] = system: CAL-85-1 (Breast Carcinoma)
Summary of the method: as §1

[13] = system: COR-L105 (Lung Adenocarcinoma)
Summary of the method: as §1

[14] = system: KNS-62 (Squamous Cell Lung Carcinoma)
Summary of the method: as §1

[15] = system: NCI-H835 (Other Solid Carcinomas)
Summary of the method: as §1

[16] = system: MDA-MB-175-VII (Breast Carcinoma)
Summary of the method: as §1

DK-MG (Glioblastoma) = system: DK-MG (Glioblastoma)
Summary of the method: as §1

Row | SMILES | Bliss excess [1] | Bliss excess [2] | Bliss excess [3] | Bliss excess [4] | Bliss excess (MG-63 (Osteosarcoma)) | Bliss excess [5] | Bliss excess (SK-MEL-24 (Melanoma)) | Bliss excess [6] | Bliss excess (GCIY (Gastric Carcinoma)) | Bliss excess [7] | Bliss excess [8] | Bliss excess [9] | Bliss excess [10] | Bliss excess [11] | Bliss excess [12] | Bliss excess [13] | Bliss excess [14] | Bliss excess [15] | Bliss excess [16] | Bliss excess (DK-MG (Glioblastoma))
1 | COc1nnc2ccc(N3CCC(c4ccc(OCCN5CCN(C)C(=O)[C@H]5C)cc4)CC3)nn12 [AZD5153] + Cn1cnc2c(F)c(Nc3ccc(Br)cc3Cl)c(C(=O)NOCCO)cc21 [Selumetinib] (first compound max 1 µM, 7x7, partner max 10 µM) | -0.0045 | -0.0524 | -0.0811 | -0.0712 | -0.0246 | -0.059 | -0.0003 | -0.0245 | 0.0023 | 0.0113 | -0.0108 | 0.0301 | -0.0008 | -0.02 | -0.0298 | 0.0622 | -0.0169 | -0.0256 | 0.019 | -0.032
2 | NC1(C(=O)N[C@@H](CCO)c2ccc(Cl)cc2)CCN(c2ncnc3[nH]ccc23)CC1 [Capivasertib] + CC(C)n1c(=O)n(C)c2cnc3cc(F)c(-c4ccc(OCCCN5CCCCC5)nc4)cc3c21 [AZD1390] (first compound max 10 µM, 7x7, partner max 0.3 µM) | -0.0165 | -0.0045 | -0.0144 | -0.0679 | -0.0844 | -0.0326 | -0.0251 | -0.0406 | -0.0841 | -0.0336 | -0.037 | -0.0268 | -0.0893 | -0.0076 | -0.0213 | -0.0635 | -0.0458 | -0.179 | -0.0189 | -0.0847
3 | COc1nnc2ccc(N3CCC(c4ccc(OCCN5CCN(C)C(=O)[C@H]5C)cc4)CC3)nn12 [AZD5153] + CCN(CCO)CCCOc1ccc2c(Nc3cc(CC(=O)Nc4cccc(F)c4)[nH]n3)ncnc2c1 [AZD2811] (first compound max 1 µM, 7x7, partner max 1 µM) | -0.005 | 0.0124 | -0.0225 | 0.0103 | -0.037 | 0.0303 | -0.102 | -0.0197 | -0.0388 | 0.0052 | -0.042 | 0.06 | -0.0185 | -0.0249 | -0.0411 | -0.0092 | -0.0382 | -0.0626 | 0.0618 | -0.13
4 | COc1cccc(OCCCN)c1-c1cc(Nc2cnc(C#N)cn2)n[nH]1 [Prexasertib] + Cc1cc2ncnn2cc1Nc1ncc2c(n1)n(C1CCOCC1)c(=O)n2C [AZD7648] (first compound max 1 µM, 7x7, partner max 10 µM) | 0.041 | -0.0477 | -0.0512 | -0.0074 | -0.0128 | 0.0017 | 0.0054 | -0.0188 | -0.0648 | 0.0115 | -0.0275 | -0.0483 | -0.0028 | 0.0057 | 0.0382 | -0.0549 | -0.0225 | -0.0346 | -0.0328 | 0.0253
5 | COc1cccc(OCCCN)c1-c1cc(Nc2cnc(C#N)cn2)n[nH]1 [Prexasertib] + C=CCn1c(=O)c2cnc(Nc3ccc(N4CCN(C)CC4)cc3)nc2n1-c1cccc(C(C)(C)O)n1 [AZD1775] (first compound max 1 µM, partner max 1 µM) | 0.0404 | -0.0252 | 0.146 | 0.101 | 0.141 | 0.0677 | 0.112 | -0.0223 | 0.0355 | 0.0718 | 0.101 | 0.0152 | 0.077 | -0.0089 | 0.124 | 0.0157 | 0.0697 | 0.105 | 0.106 | -0.0125
6 | NC1(C(=O)N[C@@H](CCO)c2ccc(Cl)cc2)CCN(c2ncnc3[nH]ccc23)CC1 [Capivasertib] + COc1nnc2ccc(N3CCC(c4ccc(OCCN5CCN(C)C(=O)[C@H]5C)cc4)CC3)nn12 [AZD5153] (first compound max 10 µM, 7x7, partner max 1 µM) | -0.0761 | 0.012 | -0.0135 | 0.0383 | -0.0237 | 0.045 | 0.0073 | 0.0761 | -0.0265 | -0.025 | 0.0588 | -0.0026 | -0.0124 | 0.0011 | 0.0009 | 0.0024 | 0.0035 | 0.0792 | 0.0129 | 0.0534
7 | COc1nnc2ccc(N3CCC(c4ccc(OCCN5CCN(C)C(=O)[C@H]5C)cc4)CC3)nn12 [AZD5153] + Cc1c2c(nn1C)CSCc1cc(n(C)n1)CSc1cc(c3ccccc3c1)OCCCc1c(C(=O)O)n(C)c3c-2c(Cl)ccc13 [AZD5991] (first compound max 1 µM, 7x7, partner max 1 µM) | -0.0138 | -0.0019 | -0.0503 | -0.0283 | -0.0302 | 0.0407 | -0.003 | -0.0012 | -0.0727 | -0.0108 | 0.0059 | -0.018 | -0.0461 | -0.0337 | -0.0157 | -0.0134 | -0.0459 | -0.115 | -0.0015 | -0.0037
8 | CC(=O)c1c(C)c2cnc(Nc3ccc(N4CCNCC4)cn3)nc2n(C2CCCC2)c1=O [Palbociclib] + CC1(C)CCC(CN2CCN(c3ccc(C(=O)NS(=O)(=O)c4ccc(NCC5CCOCC5)c([N+](=O)[O-])c4)c(Oc4cnc5[nH]ccc5c4)c3)CC2)=C(c2ccc(Cl)cc2)C1 [Venetoclax] (first compound max 10 µM, 7x7, partner max 1 µM) | -0.0254 | 0.0332 | -0.038 | 0.0227 | 0.0196 | 0.0137 | -0.0586 | -0.0444 | -0.0391 | -0.0191 | -0.0339 | 0.007 | 0.0257 | -0.025 | -0.0457 | -0.0399 | -0.0152 | -0.143 | -0.0174 | 0.0131
9 | COc1cccc(OCCCN)c1-c1cc(Nc2cnc(C#N)cn2)n[nH]1 [Prexasertib] + C[C@@H]1COCCN1C2=NC(=NC(=C2)C3(CC3)[S@](=N)(=O)C)C4=C5C=CNC5=NC=C4 [AZD6738] (first compound max 1 µM, 7x7, partner max 10 µM) | 0.0029 | -0.083 | -0.0201 | -0.0461 | 0.0234 | -0.0295 | -0.0061 | -0.0233 | 0.0063 | 0.0676 | -0.0191 | -0.0504 | 0.0168 | -0.0582 | 0.05 | -0.0425 | 0.0035 | 0.0548 | -0.0016 | 0.0073
10 | Cn1cnc2c(F)c(Nc3ccc(Br)cc3Cl)c(C(=O)NOCCO)cc21 [Selumetinib] + C=CCn1c(=O)c2cnc(Nc3ccc(N4CCN(C)CC4)cc3)nc2n1-c1cccc(C(C)(C)O)n1 [AZD1775] (first compound max 10 µM, partner max 1 µM) | -0.0318 | -0.0478 | -0.0655 | -0.0838 | -0.0327 | -0.0995 | -0.0315 | -0.0466 | 0.0057 | 0.0007 | -0.0564 | 0 | -0.0481 | -0.0891 | -0.063 | 0.0203 | -0.0251 | -0.0223 | -0.0005 | -0.0548
11 | COc1cccc(OCCCN)c1-c1cc(Nc2cnc(C#N)cn2)n[nH]1 [Prexasertib] + CN(C)CCCOc1ccc(-c2ccc3ncc4c(c3c2)n(C2CCOCC2)c(=O)n4C)cn1 [AZD0156] (first compound max 1 µM, 7x7, partner max 1 µM) | 0.026 | -0.0412 | -0.0046 | 0.0156 | 0.0072 | -0.0041 | 0.0017 | 0.0023 | -0.0072 | 0.0385 | -0.0023 | -0.0504 | 0.0331 | 0.0588 | -0.0157 | -0.0428 | 0.0357 | 0.0571 | -0.0173 | -0.0104
12 | Cn1cnc2c(F)c(Nc3ccc(Br)cc3Cl)c(C(=O)NOCCO)cc21 [Selumetinib] + C[C@@H]1COCCN1C2=NC(=NC(=C2)C3(CC3)[S@](=N)(=O)C)C4=C5C=CNC5=NC=C4 [AZD6738] (first compound max 10 µM, 7x7, partner max 10 µM) | 0.0316 | 0.0005 | -0.081 | -0.0464 | 0.0342 | 0.0042 | 0.0125 | -0.0485 | -0.0003 | -0.0103 | 0.0132 | 0.0217 | 0.01 | 0.0142 | 0.0508 | 0.0306 | -0.0278 | -0.0375 | 0.029 | 0.059
13 | CC(=O)c1c(C)c2cnc(Nc3ccc(N4CCNCC4)cn3)nc2n(C2CCCC2)c1=O [Palbociclib] + Cn1cnc2c(F)c(Nc3ccc(Br)cc3Cl)c(C(=O)NOCCO)cc21 [Selumetinib] (first compound max 10 µM, 7x7, partner max 10 µM) | -0.0041 | -0.0196 | -0.0396 | -0.0284 | 0.0263 | -0.0641 | -0.031 | -0.0418 | 0.0351 | -0.0105 | -0.0449 | 0.0125 | -0.0022 | -0.0259 | -0.0218 | -0.0355 | 0.038 | -0.0551 | -0.0013 | -0.0133

Reference: the supplement of paper PMC11061612
